From PubChem BioAssay (NCI)
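Following 48 hours of exposure in 96-well plates, responses at five concentrations were used to interpolate endpoints linearly. The concentration for full growth arrest is given as TGI.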

What was measured:
Test in all cases: NCI-60 cell line screen, 48 h
[1] = test system: A498 renal
[2] = test system: A549 NSCLC
[3] = test system: HOP-62 NSCLC
[4] = test system: MDA-MB-231 breast
[5] = test system: MDA-MB-435
[6] = test system: SK-MEL-28 melanoma
[7] = test system: SK-MEL-5 melanoma
[8] = test system: SK-OV-3 ovarian
[9] = test system: NCI-H23 lung
[10] = test system: SF-539 CNS

SMILES | TGI [1] [µM] | TGI [2] [µM] | TGI [3] [µM] | TGI [4] [µM] | TGI [5] [µM] | TGI [6] [µM] | TGI [7] [µM] | TGI [8] [µM] | TGI [9] [µM] | TGI [10] [µM]
CC(NC(C#N)CC12CC3CC(CC(C3)C1)C2)c1ccccc1 (centres undefined) | > 100 | > 100 | > 100 | > 100 | > 100 | > 100 | > 100 | > 100 | – | –
CSCCC(NC(=O)OCc1ccccc1)NC(=O)OCc1ccccc1 | – | > 100 | > 100 | > 100 | > 100 | > 100 | > 100 | > 100 | > 100 | –
c1ccc(C(CCN2CC3CCC(CC3)C2)c2ccccc2)cc1 | 34.1 | > 100 | 70.5 | 38.3 | 65.4 | > 100 | 30.1 | – | 36.1 | 29.5
CC(NC(=O)C(N)CC(=O)O)NC(=O)N(C)C(C)(C)C (centres undefined) | – | > 100 | > 100 | > 100 | > 100 | > 100 | > 100 | > 100 | > 100 | > 100
C#CC(O)/C=C/C(O)CCCC(O)CC#CC(O)C#CC(O)CCCC(O)/C=C/CCCC(=O)CCCCCCCCCCCCCCCC(O)C(O)C#CC(=O)O (centres undefined) | – | > 50 | > 50 | > 50 | > 50 | > 50 | > 50 | > 50 | > 50 | –
CC(C)(C)c1ccc(C(C)(C)C)c(N2C(=O)C3ON=C(c4ccc([N+](=O)[O-])cc4)C3C2=O)c1 (centres undefined) | 23.2 | > 25 | > 25 | – | > 25 | > 25 | > 25 | > 25 | > 25 | > 25
O=C1c2ccccc2C(=O)c2c(O)ccc(O)c21 | > 100 | > 100 | > 100 | – | – | > 100 | > 100 | > 100 | > 100 | > 100
Cc1ccc(C(=O)Nc2ccc(S(=O)(=O)O)c3cc(S(=O)(=O)O)cc(S(=O)(=O)O)c23)cc1NC(=O)c1cccc(NC(=O)Nc2cccc(C(=O)Nc3cc(C(=O)Nc4ccc(S(=O)(=O)O)c5cc(S(=O)(=O)O)cc(S(=O)(=O)O)c45)ccc3C)c2)c1 (tested in a mixture with another compound) | > 50 | > 50 | – | > 50 | > 50 | > 50 | > 50 | > 50 | > 50 | > 50
CCN(CC)CCCOc1cc2c(cc1OC)C(=O)N1CCC[C@H]1C=N2 | 92.4 | > 100 | 92.1 | > 100 | 59.6 | 45.9 | 63.7 | > 100 | – | > 100
NS(=O)(=O)c1nnc(NS(=O)(=O)c2ccccc2C(=O)O)s1 | > 100 | > 100 | > 100 | > 100 | > 100 | > 100 | > 100 | > 100 | > 100 | –
COC(=O)c1cc(C(=CCC[C@H]2CC[C@@]3(C)C(CCC4C3CC[C@@]3(C)C4CC[C@@H]3C(C)CCCC(C)C)C2)c2cc(Cl)c(OC(=O)c3ccccc3)c(C(=O)OC)c2)cc(Cl)c1OC(=O)c1ccccc1 (some centres undefined) | – | > 10 | > 10 | > 10 | > 10 | > 10 | > 10 | > 10 | > 10 | > 10
CCSc1nc(N)c2c(-c3ccccc3)c3c(nc2n1)CCC3 | – | > 100 | > 100 | > 100 | > 100 | > 100 | > 100 | > 100 | > 100 | 53
Cn1c(=O)c2c(nc(Nc3ccc(Cl)cc3)n3c(=O)n(-c4ccccc4)c(=O)n23)n(C)c1=O | > 100 | > 100 | > 100 | > 100 | > 100 | > 100 | > 100 | – | > 100 | > 100
C(=C\c1cc(-c2ccc3ccccc3n2)nc2ccc3ccccc3c12)/c1ccc2ccccc2n1 | > 100 | > 100 | > 100 | > 100 | > 100 | > 100 | > 100 | > 100 | – | > 100
NC(=O)c1nnsc1NC=O | > 100 | > 100 | > 100 | > 100 | > 100 | > 100 | > 100 | > 100 | > 100 | –
CC(=O)/C=C(\O)c1[nH]c(C(=O)O)cc1C1CCN(Cc2ccccc2)C1=O (centres undefined) | > 100 | 81.4 | 32.8 | > 100 | > 100 | 43.8 | 42.9 | 57.7 | 35.3 | –
Oc1ccc(O)c(CNc2ccccc2)c1 | – | > 100 | – | 38.4 | 29.4 | > 100 | 33.9 | 38.9 | 32.4 | 15.2
O=C(OCc1ccccc1)N1CCN(C(=O)OCc2ccccc2)CCN(C(=O)OCc2ccccc2)CCN(C(=O)OCc2ccccc2)CCN(C(=O)OCc2ccccc2)CC1 | > 100 | > 100 | > 100 | > 100 | > 100 | > 100 | 33.3 | > 100 | – | > 100
CC(=O)O[C@H]1C[C@H]2C(=S)Nc3ccccc3C(=S)N2C1 | > 100 | > 100 | > 100 | > 100 | > 100 | > 100 | > 100 | > 100 | > 100 | –
CCN1CCC(O)(c2ccc(Oc3ccc(C)cc3)cc2)C(C(=O)c2ccc(Oc3ccc(C)cc3)cc2)C1 (centres undefined) | 6.39 | 26.8 | 35.5 | 20.4 | 24.9 | 23.3 | 20.4 | 29.7 | 30.2 | –
CC(=O)OCC1=C(C)C[C@H]([C@@H](COC(C)=O)C2CCC3C4C[C@H]5O[C@]56CC=CC(=O)[C@]6(C)C4CC[C@@]32C)OC1=O (some centres undefined) | 1.64 | 7.12 | 1.91 | 1.91 | 0.721 | 1.19 | 0.875 | 6.93 | 3.59 | –
